Measurements taken from patent US6503534B1, “Pharmaceutical compositions for prolonged peptide release and preparation method” (Societe de Conseils de Recherches et d'Applications …, priority 1998, dated 2003).

Assay: Measurement of the specific surface area (B.E.T method)
Type: physicochemical
Settings: lanreotide acetate recovered after flash freezing and lyophilization
Procedure: For all the following examples, the specific surface area of the peptide salt was determined by the so-called B.E.T method (absorption of a nitrogen monolayer on the active substance), a method well known to a person skilled in the art.

Row | SMILES | Specific surface area obtained
1 | CC(C)[C@@H]1NC(=O)[C@H](CCCCN)NC(=O)[C@@H](Cc2c[nH]c3ccccc23)NC(=O)[C@H](Cc2ccc(O)cc2)NC(=O)[C@@H](NC(=O)[C@H](N)Cc2ccc3ccccc3c2)CSSC[C@@H](C(=O)N[C@H](C(N)=O)[C@@H](C)O)NC1=O [Example 4, lanreotide acetate] | 43 m^2/g
2 | CC(C)[C@@H]1NC(=O)[C@H](CCCCN)NC(=O)[C@@H](Cc2c[nH]c3ccccc23)NC(=O)[C@H](Cc2ccc(O)cc2)NC(=O)[C@@H](NC(=O)[C@H](N)Cc2ccc3ccccc3c2)CSSC[C@@H](C(=O)N[C@H](C(N)=O)[C@@H](C)O)NC1=O [Example 3, lanreotide acetate] | 36 m^2/g
